“Also recorded” adds a separate entry of the source.
Key:
[1] = biological target: T1, SARS-CoV-2 3CL^pro (Severe acute respiratory syndrome coronavirus 2, UniProt P0DTD1); test: SARS-CoV-2 3CLpro enzymatic inhibition assay (FRET peptide substrate); format: biochemical
[2] = biological target: T1, SARS-CoV-2 3CL^pro; test: Kinetic parameters of 3CLpro reaction with inhibitor; format: biochemical; details: maximum reaction rate of 3CLpro with inhibitor at its IC50

Compound: CC(=O)C1=C(O)C=C2Oc3c(C(C)=O)c(O)c(C)c(O)c3[C@@]2(C)C1=O [(+)-1, (R)-(+)-Usnic acid, reference compound]
- IC50 [1]: > 200 µM
- activity against 3CLpro (in words) [1]: does not inhibit 3CL^pro

Compound: CC(=O)C1=C(O)C=C2Oc3c(-c4csc(N/N=C/c5ccsc5)n4)c(O)c(C)c(O)c3[C@@]2(C)C1=O [(+)-3a]
- IC50 [1]: 51 ± 6.33 µM

Compound: CC(=O)C1=C(O)C=C2Oc3c(-c4csc(N/N=C/c5cccs5)n4)c(O)c(C)c(O)c3[C@@]2(C)C1=O [(+)-3b]
- IC50 [1]: 49.7 ± 6.12 µM

Compound: CC(=O)C1=C(O)C=C2Oc3c(-c4csc(N/N=C/c5sccc5C)n4)c(O)c(C)c(O)c3[C@@]2(C)C1=O [(+)-3c]
- IC50 [1]: 34 ± 4.45 µM

Compound: CC(=O)C1=C(O)C=C2Oc3c(-c4csc(N/N=C/c5ccc(C)s5)n4)c(O)c(C)c(O)c3[C@@]2(C)C1=O [(+)-3d]
- IC50 [1]: 40.7 ± 5.11 µM
- activity against 3CLpro (in words) [1]: moderately inhibited the protease

Compound: CC(=O)C1=C(O)C=C2Oc3c(-c4csc(N/N=C/c5ccc(Br)s5)n4)c(O)c(C)c(O)c3[C@@]2(C)C1=O [(+)-3e]
- IC50 [1]: 28.2 ± 1.41 µM
- activity against 3CLpro (in words) [1]: the highest but not strong activity
- Vmax [2]: 334.26 ± 39.08 nM/s

Compound: CC(=O)C1=C(O)C=C2Oc3c(-c4csc(N/N=C/c5cc(Br)cs5)n4)c(O)c(C)c(O)c3[C@@]2(C)C1=O [(+)-3f]
- IC50 [1]: 50.2 ± 6.75 µM

Compound: CC(=O)C1=C(O)C=C2Oc3c(-c4csc(N/N=C/c5ccc([N+](=O)[O-])s5)n4)c(O)c(C)c(O)c3[C@@]2(C)C1=O [(+)-3g]
- IC50 [1]: > 200 µM
- activity against 3CLpro (in words) [1]: showed no activity at all; also recorded: did not show this activity

Compound: CC(=O)C1=C(O)C=C2Oc3c(C(C)=O)c(O)c(C)c(O)c3[C@]2(C)C1=O [(−)-1, (S)-(−)-Usnic acid, reference compound]
- IC50 [1]: > 200 µM

Compound: CC(=O)C1=C(O)C=C2Oc3c(-c4csc(N/N=C/c5ccsc5)n4)c(O)c(C)c(O)c3[C@]2(C)C1=O [(−)-3a]
- IC50 [1]: 41.6 ± 4.97 µM

Compound: CC(=O)C1=C(O)C=C2Oc3c(-c4csc(N/N=C/c5cccs5)n4)c(O)c(C)c(O)c3[C@]2(C)C1=O [(−)-3b]
- IC50 [1]: 40.4 ± 5.65 µM

Compound: CC(=O)C1=C(O)C=C2Oc3c(-c4csc(N/N=C/c5sccc5C)n4)c(O)c(C)c(O)c3[C@]2(C)C1=O [(−)-3c]
- IC50 [1]: 48 ± 6.21 µM

Compound: CC(=O)C1=C(O)C=C2Oc3c(-c4csc(N/N=C/c5ccc(C)s5)n4)c(O)c(C)c(O)c3[C@]2(C)C1=O [(−)-3d]
- IC50 [1]: 41 ± 5.89 µM
- activity against 3CLpro (in words) [1]: moderately inhibited the protease

Compound: CC(=O)C1=C(O)C=C2Oc3c(-c4csc(N/N=C/c5ccc(Br)s5)n4)c(O)c(C)c(O)c3[C@]2(C)C1=O [(−)-3e]
- IC50 [1]: 85.8 ± 10.1 µM
- activity against 3CLpro (in words) [1]: almost three times less effectively

Compound: CC(=O)C1=C(O)C=C2Oc3c(-c4csc(N/N=C/c5cc(Br)cs5)n4)c(O)c(C)c(O)c3[C@]2(C)C1=O [(−)-3f]
- IC50 [1]: 72.8 ± 9.55 µM

Compound: CC(=O)C1=C(O)C=C2Oc3c(-c4csc(N/N=C/c5ccc([N+](=O)[O-])s5)n4)c(O)c(C)c(O)c3[C@]2(C)C1=O [(−)-3g]
- IC50 [1]: > 200 µM
- activity against 3CLpro (in words) [1]: showed no activity at all
